Assay results as given in PubChem BioAssay AID256 (DTP/NCI, 2004).
Inconclusive results and toxic doses are left out. Rule for the calls: active = survival T/C of 150% or more; inactive = T/C below 125% in these data.

Tested on: CD2F1 mice, L1210 leukemia ip, survival T/C
Assay: NCI In Vivo Anticancer Drug Screen. Data for tumor model L1210 Leukemia (intraperitoneal) in CD2F1 (CDF1) mice
Conditions: endpoint: mean survival time, higher = longer survival
Procedure, shortened: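 In this screen, transplantable tumors were grown in mice given either the compound or its vehicle. Results were expressed as the treated measurement relative to the control measurement.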

[1] = dose: 100.0 mg/kg/injection, schedule: Q01DX001 (ip), vehicle: saline with Tween-80
[2] = dose: 200.0 mg/kg/injection, schedule: Q01DX001 (ip), vehicle: saline with Tween-80
[3] = dose: 100.0 mg/kg/injection, schedule: Q04DX003 (ip), vehicle: saline with Tween-80
[4] = dose: 200.0 mg/kg/injection, schedule: Q04DX003 (ip), vehicle: saline with Tween-80
[5] = dose: 400.0 mg/kg/injection, schedule: Q04DX003 (ip), vehicle: saline with Tween-80
[6] = dose: 100.0 mg/kg/injection, schedule: Q01DX009 (ip), vehicle: saline
[7] = dose: 200.0 mg/kg/injection, schedule: Q01DX009 (ip), vehicle: saline
[8] = dose: 400.0 mg/kg/injection, schedule: Q01DX009 (ip), vehicle: saline
[9] = dose: 100.0 mg/kg/injection, schedule: Q01DX009 (ip), vehicle: saline with Tween-80
[10] = dose: 200.0 mg/kg/injection, schedule: Q01DX009 (ip), vehicle: saline with Tween-80
[11] = dose: 400.0 mg/kg/injection, schedule: Q01DX009 (ip), vehicle: saline with Tween-80
[12] = dose: 100.0 mg/kg/injection, schedule: Q04DX002 (ip), vehicle: saline with Tween-80
[13] = dose: 200.0 mg/kg/injection, schedule: Q04DX002 (ip), vehicle: saline with Tween-80

Measured: T/C

O=S(CCCl)CCCl
inactive: dose: 0.5 mg/kg/injection, schedule: Q01DX009 (ip), vehicle: Klucel (hydroxypropylcellulose) (HPC) 93 % of control | dose: 0.5 mg/kg/injection, schedule: Q04DX003 (ip), vehicle: Klucel (hydroxypropylcellulose) (HPC) 98 % of control | dose: 1.0 mg/kg/injection, schedule: Q01DX009 (ip), vehicle: Klucel (hydroxypropylcellulose) (HPC) 101 % of control | dose: 1.0 mg/kg/injection, schedule: Q04DX003 (ip), vehicle: Klucel (hydroxypropylcellulose) (HPC) 100 % of control | dose: 1.56 mg/kg/injection, schedule: Q01DX009 (ip), vehicle: Klucel (hydroxypropylcellulose) (HPC) 109 % of control | dose: 2.0 mg/kg/injection, schedule: Q01DX009 (ip), vehicle: Klucel (hydroxypropylcellulose) (HPC) 96 % of control | dose: 2.0 mg/kg/injection, schedule: Q04DX003 (ip), vehicle: Klucel (hydroxypropylcellulose) (HPC) 98 % of control | dose: 3.12 mg/kg/injection, schedule: Q01DX009 (ip), vehicle: Klucel (hydroxypropylcellulose) (HPC) 100 % of control | dose: 4.0 mg/kg/injection, schedule: Q01DX009 (ip), vehicle: Klucel (hydroxypropylcellulose) (HPC) 106 % of control | dose: 4.0 mg/kg/injection, schedule: Q04DX003 (ip), vehicle: Klucel (hydroxypropylcellulose) (HPC) 102 % of control | dose: 6.25 mg/kg/injection, schedule: Q01DX009 (ip), vehicle: Klucel (hydroxypropylcellulose) (HPC) 104 % of control | dose: 8.0 mg/kg/injection, schedule: Q01DX009 (ip), vehicle: Klucel (hydroxypropylcellulose) (HPC) 100 % of control | dose: 8.0 mg/kg/injection, schedule: Q04DX003 (ip), vehicle: Klucel (hydroxypropylcellulose) (HPC) 98 % of control | dose: 12.5 mg/kg/injection, schedule: Q01DX009 (ip), vehicle: Klucel (hydroxypropylcellulose) (HPC) 102 % of control | dose: 16.0 mg/kg/injection, schedule: Q01DX009 (ip), vehicle: Klucel (hydroxypropylcellulose) (HPC) 100 % of control | dose: 16.0 mg/kg/injection, schedule: Q04DX003 (ip), vehicle: Klucel (hydroxypropylcellulose) (HPC) 100 % of control | dose: 25.0 mg/kg/injection, schedule: Q01DX009 (ip), vehicle: Klucel (hydroxypropylcellulose) (HPC) 103 % of control | dose: 32.0 mg/kg/injection, schedule: Q04DX003 (ip), vehicle: Klucel (hydroxypropylcellulose) (HPC) 106 % of control

O=C(c1ccccc1)C(c1ccccc1)(c1ccccc1)c1ccccc1
inactive: [1] 93 % of control | [2] 89 % of control | dose: 400.0 mg/kg/injection, schedule: Q01DX001 (ip), vehicle: saline with Tween-80 89 % of control

Nc1ccc(S(=O)(=O)Nc2ccccc2O)cc1
inactive: dose: 3.0 mg/kg/injection, schedule: Q01DX001 (ip), vehicle: saline with Tween-80 103 % of control | dose: 6.25 mg/kg/injection, schedule: Q01DX001 (ip), vehicle: saline with Tween-80 103 % of control | dose: 12.5 mg/kg/injection, schedule: Q01DX001 (ip), vehicle: saline with Tween-80 103 % of control | dose: 25.0 mg/kg/injection, schedule: Q01DX001 (ip), vehicle: saline with Tween-80 102 % of control | dose: 50.0 mg/kg/injection, schedule: Q01DX001 (ip), vehicle: saline with Tween-80 102 % of control

CCOC(=O)C(C(=O)OCC)C(=O)C(C)C
inactive: [3] 93 % of control | [4] 97 % of control | [5] 95 % of control

C=C1C2CCC3C2C(C)(C)CCCC13C (stereo unspecified)
inactive: [6] 98 % of control | [3] 103 % of control | [7] 97 % of control | [4] 104 % of control | [8] 101 % of control | [5] 93 % of control

Cc1cnccc1N=Nc1ccc(N(C)C)cc1
inactive: [9] 117 % of control | [10] 102 % of control | [11] 96 % of control

c1ccc(C(c2ccccc2)C(c2ccccc2)c2ccccc2)cc1
inactive: dose: 18.7 mg/kg/injection, schedule: Q01DX009 (ip), vehicle: saline with Tween-80 89 % of control | dose: 37.5 mg/kg/injection, schedule: Q01DX009 (ip), vehicle: saline with Tween-80 89 % of control

O=C1c2ccccc2C(=O)N1CC(O)COc1ccccc1 (stereo unspecified)
inactive: [3] 94 % of control | [4] 101 % of control | [5] 103 % of control

COC1OCC(O)C(O)C1O (stereo unspecified)
inactive: [6] 101 % of control | [7] 98 % of control | [8] 98 % of control

O=C1CCCN1C1CC2c3ccccc3C1c1cccc[n+]12 (stereo unspecified)
inactive: dose: 5.0 mg/kg/injection, schedule: Q04DX003 (ip), vehicle: saline with Tween-80 95 % of control | dose: 10.0 mg/kg/injection, schedule: Q04DX003 (ip), vehicle: saline with Tween-80 95 % of control | dose: 20.0 mg/kg/injection, schedule: Q04DX003 (ip), vehicle: saline with Tween-80 97 % of control

COc1ccccc1N=Nc1c(O)n(-c2ccccc2OC)c(=S)n(-c2ccccc2OC)c1=O
inactive: dose: 50.0 mg/kg/injection, schedule: Q04DX002 (ip), vehicle: saline with Tween-80 98 % of control | [1] 93 % of control | [12] 94 % of control | [2] 94 % of control | [13] 102 % of control

[CH3][Sn]([Br])([Br])[CH2]CCCBr
inactive: dose: 0.39 mg/kg/injection, schedule: Q01DX009 (ip), vehicle: saline 90 % of control | dose: 0.78 mg/kg/injection, schedule: Q01DX009 (ip), vehicle: saline 97 % of control | dose: 1.56 mg/kg/injection, schedule: Q01DX009 (ip), vehicle: saline 97 % of control | dose: 6.25 mg/kg/injection, schedule: Q01DX009 (ip), vehicle: saline 110 % of control

CCCCCC(CN(C)C)C(=O)/C=C/c1c(Cl)cccc1Cl (stereo unspecified)
inactive: dose: 6.25 mg/kg/injection, schedule: Q01DX009 (ip), vehicle: other 101 % of control | dose: 12.5 mg/kg/injection, schedule: Q01DX009 (ip), vehicle: other 101 % of control | dose: 25.0 mg/kg/injection, schedule: Q01DX009 (ip), vehicle: other 104 % of control | dose: 100.0 mg/kg/injection, schedule: Q01DX001 (ip), vehicle: Klucel (hydroxypropylcellulose) (HPC) 94 % of control

CCOC(=O)CN1C(=O)NC(c2ccccc2)(c2ccccc2)C1=O
inactive: [9] 94 % of control | dose: 100.0 mg/kg/injection, schedule: Q04DX003 (ip), vehicle: acetone 97 % of control | dose: 200.0 mg/kg/injection, schedule: Q04DX003 (ip), vehicle: acetone 101 % of control | [11] 94 % of control | dose: 400.0 mg/kg/injection, schedule: Q04DX003 (ip), vehicle: acetone 103 % of control

OC1COC(C(F)(F)F)(C(F)(F)F)C1 (stereo unspecified)
inactive: [3] 94 % of control | [4] 93 % of control | [5] 96 % of control

C/C(=C\CC(=O)C/C=C(\C)CCCC(C)CCCC(C)CCCC(C)C)CCCC(C)CCCC(C)CCCC(C)C (stereo unspecified)
inactive: [12] 103 % of control | [13] 103 % of control | dose: 400.0 mg/kg/injection, schedule: Q04DX002 (ip), vehicle: saline with Tween-80 96 % of control

CCOC(=O)/C=C/C1CCCCC1
inactive: dose: 50.0 mg/kg/injection, schedule: Q01DX009 (ip), vehicle: saline with Tween-80 96 % of control | [9] 104 % of control | [10] 96 % of control
